Values belong to the compound of their own block, whether it stands above or below them.
Legend:
[1] = molecular target: T1, cGMP-dependent protein kinase 1 (Homo sapiens) (UniProt Q13976); details: at 10 µM
T1 sequence (whole entry): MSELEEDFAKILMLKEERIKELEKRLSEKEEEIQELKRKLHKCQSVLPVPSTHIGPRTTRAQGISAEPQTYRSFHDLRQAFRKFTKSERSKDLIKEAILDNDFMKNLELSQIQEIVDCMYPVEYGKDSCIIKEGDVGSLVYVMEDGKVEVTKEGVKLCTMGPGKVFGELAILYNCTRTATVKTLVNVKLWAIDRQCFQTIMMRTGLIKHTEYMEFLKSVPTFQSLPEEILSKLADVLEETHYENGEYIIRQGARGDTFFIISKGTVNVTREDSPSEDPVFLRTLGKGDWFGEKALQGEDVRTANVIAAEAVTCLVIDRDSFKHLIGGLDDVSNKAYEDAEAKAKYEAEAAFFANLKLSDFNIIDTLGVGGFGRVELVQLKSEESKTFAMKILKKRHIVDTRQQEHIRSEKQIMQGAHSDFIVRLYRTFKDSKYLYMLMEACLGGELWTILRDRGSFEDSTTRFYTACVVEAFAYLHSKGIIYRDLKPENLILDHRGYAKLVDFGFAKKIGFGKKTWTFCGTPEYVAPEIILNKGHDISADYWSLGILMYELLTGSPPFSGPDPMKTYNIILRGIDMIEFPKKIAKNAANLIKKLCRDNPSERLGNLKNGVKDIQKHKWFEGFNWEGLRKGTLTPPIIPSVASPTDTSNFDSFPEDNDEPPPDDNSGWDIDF

[2] = molecular target: Tyrosine-protein kinase ITK/TSK (Homo sapiens, UniProt Q08881); assay: Selectivity interaction (Enyzmatic assay) EUB0000601a ITK
[3] = molecular target: T2, Tyrosine-protein kinase TXK (Homo sapiens) (UniProt P42681); assay: Selectivity interaction (Ambit KINOMEscan and KiNATiv profiling in Jurkat cells) EUB0000090b TXK; format: cell-based; details: at 1 µM
T2 sequence (whole entry): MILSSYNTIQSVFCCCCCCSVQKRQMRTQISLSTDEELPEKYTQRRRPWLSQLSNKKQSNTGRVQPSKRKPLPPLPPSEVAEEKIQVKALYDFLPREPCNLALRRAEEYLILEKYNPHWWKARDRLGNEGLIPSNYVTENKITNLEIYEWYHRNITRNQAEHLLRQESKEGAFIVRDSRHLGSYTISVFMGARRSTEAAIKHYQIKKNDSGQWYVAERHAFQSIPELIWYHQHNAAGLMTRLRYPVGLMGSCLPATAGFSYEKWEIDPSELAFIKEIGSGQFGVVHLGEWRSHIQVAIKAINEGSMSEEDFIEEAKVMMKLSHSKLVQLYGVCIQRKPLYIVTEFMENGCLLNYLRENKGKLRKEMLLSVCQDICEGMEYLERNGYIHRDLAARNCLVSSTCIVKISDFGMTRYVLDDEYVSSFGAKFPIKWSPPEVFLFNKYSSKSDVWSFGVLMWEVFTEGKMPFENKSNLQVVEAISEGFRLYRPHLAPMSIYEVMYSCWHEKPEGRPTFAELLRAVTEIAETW

[4] = molecular target: Serine/threonine-protein kinase B-raf (Homo sapiens) (UniProt P15056); assay: (§1) Selectivity interaction (ProQinase) EUB0000171b BRAF
[5] = test system: Serine/threonine-protein kinase B-raf (Homo sapiens), P15056 [V600E]; assay: as §1
[6] = molecular target: Serine/threonine-protein kinase 10 (Homo sapiens) (UniProt O94804); assay: Selectivity interaction (KinomeScan (DiscoverX)) EUB0000618a STK10; details: at 10 µM
[7] = molecular target: T3, Serine/threonine-protein kinase TAO1 (Homo sapiens) (UniProt Q7L7X3); assay: Selectivity interaction (Kinase panel (KiNativ target engagement assay in Jurkat cells)) EUB0001635a TAOK1; format: cell-based; details: Selectivity number of off-targets 0.0, Selectivity number of targets 233.0, Source Knowledge https://www.sciencedirect.com/science/article/pii/S2451945619300674?via%3Dihub, at 1 µM
T3 sequence (whole entry): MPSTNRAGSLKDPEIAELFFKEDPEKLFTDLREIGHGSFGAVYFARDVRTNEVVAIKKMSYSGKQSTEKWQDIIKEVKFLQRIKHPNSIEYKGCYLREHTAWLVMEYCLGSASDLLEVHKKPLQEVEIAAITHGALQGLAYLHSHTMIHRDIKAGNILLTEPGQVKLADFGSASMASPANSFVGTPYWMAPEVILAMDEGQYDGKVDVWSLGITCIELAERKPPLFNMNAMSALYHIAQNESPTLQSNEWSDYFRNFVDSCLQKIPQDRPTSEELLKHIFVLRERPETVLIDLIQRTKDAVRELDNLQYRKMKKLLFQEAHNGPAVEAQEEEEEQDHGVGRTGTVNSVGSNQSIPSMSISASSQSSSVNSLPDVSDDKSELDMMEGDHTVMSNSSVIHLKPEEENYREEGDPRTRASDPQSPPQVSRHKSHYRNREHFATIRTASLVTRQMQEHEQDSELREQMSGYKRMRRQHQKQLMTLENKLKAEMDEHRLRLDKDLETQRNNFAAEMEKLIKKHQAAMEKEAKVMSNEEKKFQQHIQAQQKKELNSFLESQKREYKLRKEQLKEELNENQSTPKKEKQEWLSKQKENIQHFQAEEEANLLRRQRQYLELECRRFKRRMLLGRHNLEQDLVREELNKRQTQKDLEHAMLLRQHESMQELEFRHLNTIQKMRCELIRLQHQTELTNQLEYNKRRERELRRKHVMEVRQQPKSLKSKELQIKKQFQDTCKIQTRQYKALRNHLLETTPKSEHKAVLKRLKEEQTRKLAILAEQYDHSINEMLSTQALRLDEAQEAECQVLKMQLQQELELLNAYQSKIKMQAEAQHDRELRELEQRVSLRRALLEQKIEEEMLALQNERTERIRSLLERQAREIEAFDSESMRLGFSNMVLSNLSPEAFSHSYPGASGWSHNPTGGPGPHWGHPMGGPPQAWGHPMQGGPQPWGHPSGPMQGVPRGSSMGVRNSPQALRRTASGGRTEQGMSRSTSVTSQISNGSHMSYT

Serine/threonine-protein kinase B-raf (Homo sapiens), sequence (P15056 whole entry): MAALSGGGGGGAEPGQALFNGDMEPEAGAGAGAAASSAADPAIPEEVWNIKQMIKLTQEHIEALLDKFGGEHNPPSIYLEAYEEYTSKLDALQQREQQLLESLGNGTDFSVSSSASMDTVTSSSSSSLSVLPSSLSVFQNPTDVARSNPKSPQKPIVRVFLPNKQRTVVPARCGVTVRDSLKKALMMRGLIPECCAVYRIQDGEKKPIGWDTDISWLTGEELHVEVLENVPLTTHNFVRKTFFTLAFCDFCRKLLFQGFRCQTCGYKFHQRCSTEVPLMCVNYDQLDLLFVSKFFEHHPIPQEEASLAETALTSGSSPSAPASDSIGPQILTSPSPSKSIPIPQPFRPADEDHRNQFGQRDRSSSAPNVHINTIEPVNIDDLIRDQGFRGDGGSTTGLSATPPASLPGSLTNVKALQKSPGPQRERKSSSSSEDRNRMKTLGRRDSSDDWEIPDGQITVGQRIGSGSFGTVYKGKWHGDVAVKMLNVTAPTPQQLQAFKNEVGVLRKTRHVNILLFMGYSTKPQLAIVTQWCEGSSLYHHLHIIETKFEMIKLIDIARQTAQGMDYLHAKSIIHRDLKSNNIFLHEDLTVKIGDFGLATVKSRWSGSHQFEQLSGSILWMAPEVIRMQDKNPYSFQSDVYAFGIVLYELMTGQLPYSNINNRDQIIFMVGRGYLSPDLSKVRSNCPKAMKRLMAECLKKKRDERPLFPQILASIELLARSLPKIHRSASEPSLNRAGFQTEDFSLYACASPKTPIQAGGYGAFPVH
Serine/threonine-protein kinase B-raf (Homo sapiens), P15056 [V600E], sequence (P15056 whole entry V600E): as the sequence (P15056 whole entry) above, with V600E counted along it
Serine/threonine-protein kinase 10 (Homo sapiens), sequence (O94804 whole entry, looked up): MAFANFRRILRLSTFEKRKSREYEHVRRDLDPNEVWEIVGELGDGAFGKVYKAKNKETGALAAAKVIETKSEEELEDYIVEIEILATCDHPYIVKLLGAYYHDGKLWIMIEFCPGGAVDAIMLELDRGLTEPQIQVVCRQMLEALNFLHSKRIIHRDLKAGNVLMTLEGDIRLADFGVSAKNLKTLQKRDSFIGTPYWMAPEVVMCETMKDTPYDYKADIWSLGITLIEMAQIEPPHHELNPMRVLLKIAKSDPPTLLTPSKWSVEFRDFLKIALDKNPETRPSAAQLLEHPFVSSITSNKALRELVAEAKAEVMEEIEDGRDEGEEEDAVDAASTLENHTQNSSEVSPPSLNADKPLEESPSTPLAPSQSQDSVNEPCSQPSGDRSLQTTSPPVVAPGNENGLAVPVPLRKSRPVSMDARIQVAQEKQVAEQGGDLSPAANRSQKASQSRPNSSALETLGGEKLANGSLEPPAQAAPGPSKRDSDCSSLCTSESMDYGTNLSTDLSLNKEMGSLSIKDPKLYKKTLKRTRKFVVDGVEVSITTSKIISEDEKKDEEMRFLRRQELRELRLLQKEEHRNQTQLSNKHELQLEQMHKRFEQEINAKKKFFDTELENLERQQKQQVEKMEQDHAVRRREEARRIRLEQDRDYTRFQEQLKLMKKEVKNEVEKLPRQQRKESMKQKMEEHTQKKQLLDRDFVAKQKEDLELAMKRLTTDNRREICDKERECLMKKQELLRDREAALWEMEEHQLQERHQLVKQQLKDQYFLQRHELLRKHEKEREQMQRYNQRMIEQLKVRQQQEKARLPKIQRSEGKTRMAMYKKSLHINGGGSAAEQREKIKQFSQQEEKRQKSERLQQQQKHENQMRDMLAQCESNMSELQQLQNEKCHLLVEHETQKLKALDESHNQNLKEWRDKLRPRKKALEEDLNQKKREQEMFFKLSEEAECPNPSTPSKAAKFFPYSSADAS
Tyrosine-protein kinase ITK/TSK, sequence (Q08881 whole entry): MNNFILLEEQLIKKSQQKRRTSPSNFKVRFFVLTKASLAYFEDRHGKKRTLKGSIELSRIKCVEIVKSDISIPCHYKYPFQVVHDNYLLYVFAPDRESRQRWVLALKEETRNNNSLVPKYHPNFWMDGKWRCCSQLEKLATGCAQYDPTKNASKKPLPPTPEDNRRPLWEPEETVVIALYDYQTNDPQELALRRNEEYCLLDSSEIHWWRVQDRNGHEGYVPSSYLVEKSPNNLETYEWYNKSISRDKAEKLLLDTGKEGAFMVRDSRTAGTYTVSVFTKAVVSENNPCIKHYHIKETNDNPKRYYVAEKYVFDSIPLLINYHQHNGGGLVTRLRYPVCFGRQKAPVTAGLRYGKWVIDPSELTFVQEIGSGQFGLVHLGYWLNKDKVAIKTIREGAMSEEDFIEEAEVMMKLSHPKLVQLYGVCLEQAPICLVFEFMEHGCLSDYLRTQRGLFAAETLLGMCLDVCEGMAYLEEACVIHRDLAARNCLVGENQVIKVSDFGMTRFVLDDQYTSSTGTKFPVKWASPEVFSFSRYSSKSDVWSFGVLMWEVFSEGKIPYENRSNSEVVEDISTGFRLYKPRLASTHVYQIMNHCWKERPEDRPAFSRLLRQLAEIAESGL

SMILES: Cc1cc([C@@H](C)Nc2ccccc2C(=O)O)c2nc(N3CCOCC3)cc(=O)n2c1 [AZD-6482]
% of control [1]: 100%

IC50 [2]: > 25 µM
SMILES: CCc1cc(Nc2nccc(-c3c(-c4ccc(OC)c(C(=O)Nc5c(F)cccc5F)c4)nc4ccccn34)n2)c(OC)cc1N1CCC(N2CCN(S(C)(=O)=O)CC2)CC1

SMILES: CN(C)C/C=C/C(=O)Nc1ccc(C(=O)N2CCCC(Nc3ncc(Cl)c(-c4c[nH]c5ccccc45)n3)C2)cc1 (centres undefined)
% of control [3]: 94%

% of control ([4]; at 1 µM): 96% | % of control ([4]; at 5 µM): 82% | % of control ([5]; at 1 µM): 110% | % of control ([5]; at 5 µM): 113%
SMILES: C=CC(=O)Nc1cccc(C(=O)Nc2ccc(Nc3cc(-c4[nH]c(SC)nc4C)ccn3)cc2)c1

SMILES: O[C@H]1CC[C@H](Nc2ncc3nc(Nc4c(F)cc(F)cc4F)n([C@H]4CCOC4)c3n2)CC1
% of control [6]: 97%

SMILES: C=CC(=O)Nc1ccc(C(=O)Nc2[nH]nc3c2CN(C(=O)N[C@H](CN(C)C)c2ccccc2)C3(C)C)cc1
% of engagement [7]: -0.7%

From ChEMBL document CHEMBL5465560, “Selectivity Literature for EUbOPEN Chemogenomic Library” (2024)
